Numbered stars: 1 amine (or outer) side, 2 acyl side, 3 side chain; on linkers, the order of the positions; unused ones are H or OH. Bridge positions count the residues as written; N and C are the ends. Square brackets hold non-standard residues; d marks the D form. Peptide text beside a SMILES is read from it. Trp(2-yl) = O=C([C@H](Cc1c([*:3])[nH]c2ccccc12)N[*:1])[*:2]; X4 = O=C([C@H](Cc1c([*:3])[nH]c2ccc(O)cc12)N[*:1])[*:2]; Ile(4R-OH,5-OH) = C[C@H]([C@H](N)C(=O)O)[C@@H](O)CO; X5 = C[C@@H](S[*:3])[C@H](N[*:1])C(=O)[*:2]; X2 = CC[C@H](C)[C@@H](CNNC(=O)[*:2])N[*:1]; X3 = C[C@H](S[*:3])[C@H](N[*:1])C(=O)[*:2]; X1 = CS[C@H](C)[C@H](N[*:1])C(=O)[*:2]; Nva(3-Et) = CCC(CC)[C@H](N)C(=O)O; αMeI = CC[C@H](C)[C@](C)(N)C(=O)O; Hyp = O=C(O)[C@@H]1C[C@@H](O)CN1; Pen = CC(C)(S)[C@H](N)C(=O)O; azaGly = NNC(=O)O
How the values were obtained:
HeLa = assay: Cytotoxicity against human HeLa cells assessed as reduction in cell viability incubated for 72 hrs by MTT assay; type: functional, cell-based
HepG2 = assay: Cytotoxicity against human HepG2 cells assessed as reduction in cell viability incubated for 72 hrs by MTT assay; type: functional, cell-based; settings: HepG2, 72 h
[1] = Cytotoxicity against chinese hamster CHO cells assessed as reduction in cell viability incubated for 72 hrs by MTT assay; type: toxicity, cell-based, Cricetulus griseus
[2] = Cytotoxicity against human HEK293 cells assessed as reduction in cell viability incubated for 72 hrs by MTT assay; type: toxicity, cell-based
[3] = Inhibition of RNA polymerase 2 in human HeLa cells nuclear extract using DNA template as substrate incubated for 60 mins by TRA; type: subcellular, Nucleus

Compound | IC50 (HeLa) [µM] | IC50 (HepG2) [µM] | IC50 at 72 h [1] [µM] | IC50 at 72 h [2] [µM] | IC50 [3] [µM]
CC[C@H](C)[C@@H]1NC(=O)CNC(=O)[C@@H]2Cc3c([nH]c4cc(O)ccc34)[S+]([O-])C[C@H](NC(=O)CNC1=O)C(=O)N[C@@H](CC(N)=O)C(=O)N1C[C@H](O)C[C@H]1C(=O)N[C@@H]([C@@H](C)[C@@H](O)CO)C(=O)N2 (stereo partly drawn) | 1 | 0.56 | 1 | 1 | 0.001
C[C@H]([C@@H]1NC(=O)[C@@H]2C[C@@H](O)CN2C(=O)[C@H](CC(N)=O)NC(=O)[C@@H]2CSc3[nH]c4ccccc4c3C[C@H](NC1=O)C(=O)NCC(=O)N[C@H](C1CCCC1)C(=O)NCC(=O)N2)[C@@H](O)CO |  |  | 6.9 |  | 0.047
CC[C@H](C)[C@@H]1NC(=O)CNC(=O)[C@@H]2Cc3c([nH]c4ccccc34)SC[C@H](NC(=O)CNC1=O)C(=O)N[C@@H](CC(N)=O)C(=O)N1C[C@H](O)C[C@H]1C(=O)N[C@@H]([C@@H](C)[C@@H](O)CO)C(=O)N2 (cyclo(CN[Hyp][Ile(4R-OH,5-OH)][Trp(2-yl)]GIG); thioether 1-5) |  |  | 1.3 |  | 0.0095
CO[C@H](C)[C@@H]1NC(=O)CNC(=O)[C@@H]2Cc3c([nH]c4ccccc34)SC[C@H](NC(=O)CNC1=O)C(=O)N[C@@H](CC(N)=O)C(=O)N1C[C@H](O)C[C@H]1C(=O)N[C@@H]([C@@H](C)[C@@H](O)CO)C(=O)N2 (cyclo(CN[Hyp][Ile(4R-OH,5-OH)][Trp(2-yl)]GT(Me)G); thioether 1-5) |  |  | > 20 |  | 0.042
CCC(CC)[C@@H]1NC(=O)CNC(=O)[C@@H]2Cc3c([nH]c4ccccc34)SC[C@H](NC(=O)CNC1=O)C(=O)N[C@@H](CC(N)=O)C(=O)N1C[C@H](O)C[C@H]1C(=O)N[C@@H]([C@@H](C)[C@@H](O)CO)C(=O)N2 (cyclo(CN[Hyp][Ile(4R-OH,5-OH)][Trp(2-yl)]G[Nva(3-Et)]G); thioether 1-5) |  |  | 0.78 | 0.37 | 0.0085
CS[C@H](C)[C@@H]1NC(=O)CNC(=O)[C@@H]2Cc3c([nH]c4ccccc34)SC[C@H](NC(=O)CNC1=O)C(=O)N[C@@H](CC(N)=O)C(=O)N1C[C@H](O)C[C@H]1C(=O)N[C@@H]([C@@H](C)[C@@H](O)CO)C(=O)N2 (cyclo(CN[Hyp][Ile(4R-OH,5-OH)][Trp(2-yl)]G[X1]G); thioether 1-5) | 4 | > 10 | 5.6 | 1.5 | 0.0086
CC[C@H](C)[C@H]1CNNC(=O)N[C@H]2CSc3[nH]c4ccccc4c3C[C@H](NC(=O)[C@H]([C@@H](C)[C@@H](O)CO)NC(=O)[C@@H]3C[C@@H](O)CN3C(=O)[C@H](CC(N)=O)NC2=O)C(=O)NCC(=O)N1 (cyclo(CN[Hyp][Ile(4R-OH,5-OH)][Trp(2-yl)]G[X2]); thioether 1-5) | 0.83 | 2.7 | 0.38 | 0.46 | 0.0047
CC[C@H](C)[C@]1(C)NC(=O)NNC(=O)[C@@H]2Cc3c([nH]c4ccccc34)SC[C@H](NC(=O)CNC1=O)C(=O)N[C@@H](CC(N)=O)C(=O)N1C[C@H](O)C[C@H]1C(=O)N[C@@H]([C@@H](C)[C@@H](O)CO)C(=O)N2 (cyclo(CN[Hyp][Ile(4R-OH,5-OH)][Trp(2-yl)][azaGly][αMeI]G); thioether 1-5) |  |  | 2.4 | 0.45 | 0.0053
CCC(CC)[C@@H]1NC(=O)CNC(=O)[C@@H]2Cc3c([nH]c4ccc(O)cc34)SC[C@H](NC(=O)CNC1=O)C(=O)N[C@@H](CC(N)=O)C(=O)N1C[C@H](O)C[C@H]1C(=O)N[C@@H]([C@@H](C)[C@@H](O)CO)C(=O)N2 (cyclo(CN[Hyp][Ile(4R-OH,5-OH)][X4]G[Nva(3-Et)]G); thioether 1-5) |  |  | 2.5 | 0.32 | 0.0178
CC[C@H](C)[C@@H]1NC(=O)CNC(=O)[C@@H]2Cc3c([nH]c4ccccc34)SC(C)(C)[C@H](NC(=O)CNC1=O)C(=O)N[C@@H](CC(N)=O)C(=O)N1C[C@H](O)C[C@H]1C(=O)N[C@@H]([C@@H](C)[C@@H](O)CO)C(=O)N2 (cyclo(GIG[Pen]N[Hyp][Ile(4R-OH,5-OH)][Trp(2-yl)]); thioether 4-8) |  |  | 9.3 |  | 0.0177
CC[C@H](C)[C@@H]1NC(=O)CNC(=O)[C@@H]2Cc3c([nH]c4ccccc34)S[C@@H](C)[C@H](NC(=O)CNC1=O)C(=O)N[C@@H](CC(N)=O)C(=O)N1C[C@H](O)C[C@H]1C(=O)N[C@@H]([C@@H](C)[C@@H](O)CO)C(=O)N2 (cyclo(GIG[X3]N[Hyp][Ile(4R-OH,5-OH)][Trp(2-yl)]); thioether 4-8) |  |  | 1.3 | 0.51 | 0.01
CC[C@H](C)[C@@H]1NC(=O)CNC(=O)[C@@H]2Cc3c([nH]c4ccc(O)cc34)S[C@@H](C)[C@H](NC(=O)CNC1=O)C(=O)N[C@@H](CC(N)=O)C(=O)N1C[C@H](O)C[C@H]1C(=O)N[C@@H]([C@@H](C)[C@@H](O)CO)C(=O)N2 (cyclo(GIG[X3]N[Hyp][Ile(4R-OH,5-OH)][X4]); thioether 4-8) |  |  | 6.9 | 0.88 | 0.0147
CC[C@H](C)[C@@H]1NC(=O)CNC(=O)[C@@H]2Cc3c([nH]c4ccccc34)S[C@H](C)[C@H](NC(=O)CNC1=O)C(=O)N[C@@H](CC(N)=O)C(=O)N1C[C@H](O)C[C@H]1C(=O)N[C@@H]([C@@H](C)[C@@H](O)CO)C(=O)N2 (cyclo(GIG[X5]N[Hyp][Ile(4R-OH,5-OH)][Trp(2-yl)]); thioether 4-8) |  |  | > 20 |  | > 0.128
CCC(CC)[C@@H]1NC(=O)CNC(=O)[C@@H]2Cc3c([nH]c4ccccc34)S[C@@H](C)[C@H](NC(=O)CNC1=O)C(=O)N[C@@H](CC(N)=O)C(=O)N1C[C@H](O)C[C@H]1C(=O)N[C@@H]([C@@H](C)[C@@H](O)CO)C(=O)N2 (cyclo(G[Nva(3-Et)]G[X3]N[Hyp][Ile(4R-OH,5-OH)][Trp(2-yl)]); thioether 4-8) | 0.6 | 0.11 | 0.61 | 0.2 | 0.0095
CCC(CC)[C@@H]1NC(=O)CNC(=O)[C@@H]2Cc3c([nH]c4ccc(O)cc34)S[C@@H](C)[C@H](NC(=O)CNC1=O)C(=O)N[C@@H](CC(N)=O)C(=O)N1C[C@H](O)C[C@H]1C(=O)N[C@@H]([C@@H](C)[C@@H](O)CO)C(=O)N2 (cyclo(G[Nva(3-Et)]G[X3]N[Hyp][Ile(4R-OH,5-OH)][X4]); thioether 4-8) |  |  | 2.4 | 0.51 | 0.0138

Source: ChEMBL document CHEMBL5113439, “Rationally Designed Amanitins Achieve Enhanced Cytotoxicity” (J Med Chem, 2022)
